Here are results for two compounds from patent US5698401A, “Use of nuclear magnetic resonance to identify ligands to target biomolecules” (priority 1995, dated 1997).

Where two headings read alike, the source gives them in different places.

One data set is described as follows: Water solubility. Format: physicochemical.
The target of the next data set is T1, Stromelysin (Homo sapiens, UniProt P08254).
T1 construct: initiating methionine (N); made in house; host or cells: E. coli BL21(DE3)/pLysS, pET3d
T1 sequence (P08254 100-273): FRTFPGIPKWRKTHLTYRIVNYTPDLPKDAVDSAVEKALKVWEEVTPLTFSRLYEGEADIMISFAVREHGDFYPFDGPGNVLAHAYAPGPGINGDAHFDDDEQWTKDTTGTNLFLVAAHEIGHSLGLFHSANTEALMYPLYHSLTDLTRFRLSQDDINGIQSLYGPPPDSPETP
The experiment in a line: Inhibition of degradation (autolysis) of stromelysin. The class given is biochemical. The note with it: 500 mM. As for the experimental part:
Studies were performed to design new ligands that bound to the catalytic domain of stromelysin. Because stromelysin undergoes autolysis, an inhibitor was sought to block the degradation of stromelysin. That inhibitor would facilitate the screening of other potential ligands that bind to other sites on the enzyme.
A variety of hydroxamic acids of the general formula R-(CO)NHOH were screened for binding to stromelysin using the procedures set forth in Example 2.

In data set [1] the target is T2, catalytic domain of stromelysin (Homo sapiens, UniProt P08254).
T2 construct: initiating methionine (N); made in house; host or cells: E. coli BL21(DE3)/pLysS, pET3d
T2 sequence (P08254 100-273): as above
Kind of data set: NMR binding (2D 15N/1H HSQC) to the catalytic domain of stromelysin. As for the experimental part: The catalytic domain of stromelysin was prepared in accordance with the procedures of Example 1. The protein solutions used in the screening assay contained the uniformly ^15 N-labeled catalytic domain of stromelysin (0.3 mM), acetohydroxamic acid (500 mM), CaCl2 (20 mM), and sodium azide (0.5%) in a H2 O/D2 O (9/1) TRIS buffered solution (50 mM, pH=7.0).
Two-dimensional ^15 N/^1 H NMR spectra were generated at 29° C. on a Bruker AMX500 NMR spectrometer equipped with a triple resonance probe and Bruker sample changer. The ^15 N/^1 H HSQC spectra were acquired as 80x1024 complex points using sweep widths of 2000 Hz (^15 N, t^1) and 8333 Hz (^1 H, t2). […] All NMR spectra were processed and analyzed on Silicon Graphics computers using in-house-written software. […]
Various biaryl compounds of structure I were tested for binding to stromelysin at differing concentrations. The ^15 N/^1 H spectra generated at each concentration were evaluated to quantify differences in the spectra as a function of compound concentration. A binding or dissociation constant (KD)was calculated, using standard procedures well known in the art, from those differences. […]
In a first study, binding constants were determined, both by the NMR method of the present invention, and by a prior an enzymatic assay. […] The KD values so obtained were compared to an inhibition constant KI as determined in an enzymatic assay. […]

The target in data set [2] is T2, catalytic domain of stromelysin. Kind of data set: Enzymatic assay, cleavage of a fluorogenic substrate by stromelysin. Format: biochemical. As for the experimental part:
The target molecule was the catalytic domain of stromelysin prepared in accordance with the procedures of Example 1. […] The KD values so obtained were compared to an inhibition constant KI as determined in an enzymatic assay.
The enzymatic assay measured the rate of cleavage of a fluorogenic substrate by following the fluorescence increase upon peptide cleavage which causes a separation between the fluorophore and quencher. Enzymatic activity was measured using a matrix of different concentrations of acetohydroxamic acid and biaryl compounds.
Individual compound concentration varied due to solubility and potency.
All NMR measurements were performed in the presence of 500 mM acetohydroxamic acid, except for the titration of acetohydroxamic acid itself. Dissociation constants were obtained from the dependence of the observed chemical shift changes upon added ligand. Inhibition constants were then obtained from the inhibition data using standard procedures.

As to `CC(=O)NO` [Acetohydroxamic acid, acetohydroxamic acid], in “Water solubility”, the water solubility result was “good water solubility”. Further, the “inhibition of the degradation of the enzyme” value against Stromelysin is listed as “inhibited the degradation of the enzyme”.
Take `c1ccc(-c2ccncc2)cc1` [Compound 7]: the Kd (usually the equilibrium constant for the complex coming apart) in data set [1] turned out to be 200 µM; in data set [1] (Table 3, in the presence of 500 mM acetohydroxamic acid, read-out: NMR KD), 170 µM. For the same compound, in data set [2], the inhibition constant (Ki) (usually a measure of affinity in units of concentration, obtained from inhibition or displacement) came to 320 µM.
